The values below come from patent US11339128B2 (Firmenich Incorporated, priority 2014, dated 2022).

The target of one data set is T1, T1R2/T1R3 taste receptor (Homo sapiens, UniProt Q7RTX0+Q8TE23).
T1 sequence (Q8TE23 20-839): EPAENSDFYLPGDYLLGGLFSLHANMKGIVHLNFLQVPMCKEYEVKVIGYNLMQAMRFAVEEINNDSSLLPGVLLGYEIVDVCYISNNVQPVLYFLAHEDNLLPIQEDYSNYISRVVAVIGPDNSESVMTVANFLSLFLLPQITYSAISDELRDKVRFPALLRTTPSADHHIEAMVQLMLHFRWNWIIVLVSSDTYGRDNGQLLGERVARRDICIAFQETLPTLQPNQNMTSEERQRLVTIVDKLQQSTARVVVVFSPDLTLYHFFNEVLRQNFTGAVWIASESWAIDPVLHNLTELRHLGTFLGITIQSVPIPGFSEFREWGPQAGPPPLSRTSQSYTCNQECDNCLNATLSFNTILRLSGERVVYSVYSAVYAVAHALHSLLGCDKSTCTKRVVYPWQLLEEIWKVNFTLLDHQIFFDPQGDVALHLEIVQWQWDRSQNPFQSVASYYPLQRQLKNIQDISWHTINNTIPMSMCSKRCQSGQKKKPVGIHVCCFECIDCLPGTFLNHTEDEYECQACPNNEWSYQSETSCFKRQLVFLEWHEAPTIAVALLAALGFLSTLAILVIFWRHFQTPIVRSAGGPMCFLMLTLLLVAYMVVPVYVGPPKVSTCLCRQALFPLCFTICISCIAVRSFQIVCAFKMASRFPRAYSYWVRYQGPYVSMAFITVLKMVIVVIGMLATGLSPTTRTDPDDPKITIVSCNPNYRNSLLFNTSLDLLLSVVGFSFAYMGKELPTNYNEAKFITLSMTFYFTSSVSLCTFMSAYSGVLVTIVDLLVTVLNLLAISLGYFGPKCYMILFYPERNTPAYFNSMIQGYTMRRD
T1 sequence (Q7RTX0 21-852): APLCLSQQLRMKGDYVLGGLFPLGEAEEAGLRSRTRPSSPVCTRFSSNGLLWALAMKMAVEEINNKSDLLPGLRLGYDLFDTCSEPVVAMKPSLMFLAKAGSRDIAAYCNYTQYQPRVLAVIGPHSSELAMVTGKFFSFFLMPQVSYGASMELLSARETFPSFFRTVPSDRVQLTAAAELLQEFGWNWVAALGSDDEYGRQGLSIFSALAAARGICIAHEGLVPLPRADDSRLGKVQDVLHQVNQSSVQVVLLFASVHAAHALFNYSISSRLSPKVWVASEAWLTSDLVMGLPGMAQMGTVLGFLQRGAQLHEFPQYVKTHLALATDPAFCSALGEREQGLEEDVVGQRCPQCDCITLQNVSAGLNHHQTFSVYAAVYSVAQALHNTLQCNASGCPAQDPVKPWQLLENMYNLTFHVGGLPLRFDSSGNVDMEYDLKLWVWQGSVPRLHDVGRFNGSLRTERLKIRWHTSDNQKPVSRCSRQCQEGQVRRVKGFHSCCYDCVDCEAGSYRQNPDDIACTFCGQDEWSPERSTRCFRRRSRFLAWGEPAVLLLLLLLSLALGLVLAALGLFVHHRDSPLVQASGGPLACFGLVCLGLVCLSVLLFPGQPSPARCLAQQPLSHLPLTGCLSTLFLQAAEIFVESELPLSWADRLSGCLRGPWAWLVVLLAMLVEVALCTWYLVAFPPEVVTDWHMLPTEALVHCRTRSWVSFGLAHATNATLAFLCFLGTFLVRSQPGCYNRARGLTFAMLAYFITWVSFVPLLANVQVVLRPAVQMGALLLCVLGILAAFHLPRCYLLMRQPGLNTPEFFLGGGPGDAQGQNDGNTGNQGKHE
The data set can be described thus: Receptor-based assay: sweetener EC50 enhancement ratio with and without test compound. It is filed as cell-based. The following applies: for Sucrose Enhancement EC50 Ratio: sweetener sucrose; for Fructose Enhancement EC50 Ratio: sweetener fructose; for Sucralose Enhancement EC50 Ratio: sweetener sucralose. Summed up: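 Sweetener (sucrose, sucralose, fructose) EC50 measured alone and with 1, 3, 10 or 50 μM test compound. Enhancement ratio = EC50 without/with compound; A = >1 to <10, B = 10–20, C = >20.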

Data set [1] is described as follows: Sensory paired-comparison sweetness test of sweetener (sucrose or high-fructose corn syrup) with test compound. It is filed as in vivo, human. Particulars: test compound 10 ppm or less with 6% sucrose, low sodium buffer pH 7.1; sucrose-alone concentration of equivalent perceived sweetness. The procedure: Test samples containing either a sweetener (sucrose or high-fructose corn syrup) alone or in combination with a test compound were presented in pairs to a group of panelist who were asked to determine which of the samples was sweeter. Subjects refrained from eating or drinking (except water) for at least 1 hour prior to the test. Subjects rinsed with water several times to clean the mouth. The samples within a paired comparison test were presented in a randomized, counterbalanced order. Panelists had up to a 1 minute delay between taste tests to clear the mouth of any tastes. Binomial probability tables were used to determine the probability of the correct number of responses occurring for each test at alpha-0.05.
Stock solutions of test compounds were prepared at 1000× final concentration with ethanol to ensure dispersion in solution. Test compound samples including sucrose were prepared by diluting the stock solutions in a low sodium buffer (0.952 g of KCl, 5.444 g of Na2HPO4, and 0.952 g of KH2PO4 in deionized ultrafiltered water) at pH 7.1 and containing sucrose. Test compound samples including high fructose corn syrup were prepared by diluting the stock solutions in the low sodium buffer at pH 2.8 (using citric acid to adjust the pH) and containing high fructose corn syrup. Control samples were balanced to 0.1% ethanol final.
In samples containing the test compound, the test compound was present at a concentration of 10 ppm or less and the concentration of sucrose was 6%. This table indicates the sucrose-alone concentration having a perceived sweetness intensity equivalent to the sweetness intensity of the combination of test compound and sucrose. An “A” value indicates an equivalent sucrose concentration greater than 6% and less than 10%. A “B” value indicates an equivalent sucrose concentration of 10% or greater. […]

With `Cc1nc2cccc(O[C@H]3CC[C@H](C)CC3)c2c(N)c1C(=O)O` [Compound 100, 4-Amino-2-methyl-5-((trans-4-methylcyclohexyl)oxy)quinoline-3-carboxylic acid], the melting point fell in the range of 225 to 228 °C. Also, the “Sucrose Enhancement EC50 Ratio” value at T1R2/T1R3 taste receptor (1 μM test compound) is “B (an enhancement ratio from 10 to 20)”. Also, the “Sucrose Enhancement EC50 Ratio” value on T1R2/T1R3 taste receptor (3 μM test compound) is recorded as “C (an enhancement ratio greater than 20)”. Moreover, the “Sucrose Enhancement EC50 Ratio” value on T1R2/T1R3 taste receptor (10 μM test compound) is on record as “C (an enhancement ratio greater than 20)”. For the same compound, the “Equivalent Sucrose Conc.” value in data set [1] is on record as “B (an equivalent sucrose concentration of 10% or greater)”.

Turning to `COC[C@H]1CC[C@H](Oc2cccc3nc(C)c(C(=O)O)c(N)c23)CC1` [Compound 101, 4-Amino-5-((trans-4-(methoxymethyl)cyclohexyl)oxy)-2-methylquinoline-3-carboxylic acid], the “Sucrose Enhancement EC50 Ratio” value on T1R2/T1R3 taste receptor (1 μM test compound), on T1R2/T1R3 taste receptor (3 μM test compound) and at T1R2/T1R3 taste receptor (10 μM test compound) was “C (an enhancement ratio greater than 20)” throughout. For the same compound, the “Fructose Enhancement EC50 Ratio” value at T1R2/T1R3 taste receptor (10 μM test compound) is “A (an enhancement ratio of greater than 1 and less than 10)”. Moreover, at T1R2/T1R3 taste receptor (10 μM test compound), the “Sucralose Enhancement EC50 Ratio” value is reported as “C (an enhancement ratio greater than 20)”. In addition, the “Equivalent Sucrose Conc.” value in data set [1] was “A (an equivalent sucrose concentration greater than 6% and less than 10%)”.

For `CCc1nc2cccc(O[C@H]3CC[C@H](C)CC3)c2c(N)c1C(=O)O` [Compound 201], the “Sucrose Enhancement EC50 Ratio” value at T1R2/T1R3 taste receptor (1 μM test compound) was “A (an enhancement ratio of greater than 1 and less than 10)”; at T1R2/T1R3 taste receptor (3 μM test compound), “B (an enhancement ratio from 10 to 20)”. Moreover, the “Equivalent Sucrose Conc.” value in data set [1] was “A (an equivalent sucrose concentration greater than 6% and less than 10%)”.

With `CCCOCC(=O)N[C@H]1CC[C@H](Oc2cccc3nc(C)c(C(=O)O)c(N)c23)CC1` [Compound 305], the “Sucrose Enhancement EC50 Ratio” value was “B (an enhancement ratio from 10 to 20)” at T1R2/T1R3 taste receptor (1 μM test compound); “A (an enhancement ratio of greater than 1 and less than 10)” on T1R2/T1R3 taste receptor (3 μM test compound); “A (an enhancement ratio of greater than 1 and less than 10)” at T1R2/T1R3 taste receptor (10 μM test compound). In addition, on T1R2/T1R3 taste receptor (10 μM test compound), the “Sucralose Enhancement EC50 Ratio” value is recorded as “C (an enhancement ratio greater than 20)”. For the same compound, the “Equivalent Sucrose Conc.” value in data set [1] is “B (an equivalent sucrose concentration of 10% or greater)”.

As for `Cc1nc2cccc(O[C@H]3CC[C@H](NC(=O)COC(C)C)CC3)c2c(N)c1C(=O)O` [Compound 306], the “Sucrose Enhancement EC50 Ratio” value was “B (an enhancement ratio from 10 to 20)” at T1R2/T1R3 taste receptor (1 μM test compound); “A (an enhancement ratio of greater than 1 and less than 10)” at T1R2/T1R3 taste receptor (3 μM test compound); “A (an enhancement ratio of greater than 1 and less than 10)” on T1R2/T1R3 taste receptor (10 μM test compound). In addition, the “Sucralose Enhancement EC50 Ratio” value on T1R2/T1R3 taste receptor (10 μM test compound) is “A (an enhancement ratio of greater than 1 and less than 10)”. Further, the “Equivalent Sucrose Conc.” value in data set [1] is listed as “B (an equivalent sucrose concentration of 10% or greater)”.

For the compound `Cc1nc2cccc(O[C@H]3CC[C@H](NC(=O)COCC(C)C)CC3)c2c(N)c1C(=O)O` [Compound 307], the “Sucrose Enhancement EC50 Ratio” value on T1R2/T1R3 taste receptor (1 μM test compound) was “A (an enhancement ratio of greater than 1 and less than 10)”. Moreover, on T1R2/T1R3 taste receptor (3 μM test compound), the “Sucralose Enhancement EC50 Ratio” value is “B (an enhancement ratio from 10 to 20)” and the “Sucrose Enhancement EC50 Ratio” value was “C (an enhancement ratio greater than 20)”. Further, the “Equivalent Sucrose Conc.” value in data set [1] is given as “B (an equivalent sucrose concentration of 10% or greater)”.

For `Cc1nc2cccc(O[C@H]3CC[C@H](NC(=O)COC4CCC4)CC3)c2c(N)c1C(=O)O` [Compound 309], at T1R2/T1R3 taste receptor (1 μM test compound), the “Sucrose Enhancement EC50 Ratio” value is reported as “B (an enhancement ratio from 10 to 20)”. At T1R2/T1R3 taste receptor (3 μM test compound), the “Sucralose Enhancement EC50 Ratio” value is “B (an enhancement ratio from 10 to 20)”; the “Sucrose Enhancement EC50 Ratio” value was “A (an enhancement ratio of greater than 1 and less than 10)”. On T1R2/T1R3 taste receptor (10 μM test compound), the “Fructose Enhancement EC50 Ratio” value is “A (an enhancement ratio of greater than 1 and less than 10)”; the “Sucralose Enhancement EC50 Ratio” value is reported as “B (an enhancement ratio from 10 to 20)”; the “Sucrose Enhancement EC50 Ratio” value was “B (an enhancement ratio from 10 to 20)”. In addition, the “Equivalent Sucrose Conc.” value in data set [1] was “B (an equivalent sucrose concentration of 10% or greater)”.

With `Cc1nc2cccc(O[C@H]3CC[C@H](NC(=O)COC4CCCC4)CC3)c2c(N)c1C(=O)O` [Compound 310], the “Sucrose Enhancement EC50 Ratio” value on T1R2/T1R3 taste receptor (1 μM test compound) is given as “C (an enhancement ratio greater than 20)”. Besides, the “Sucralose Enhancement EC50 Ratio” value on T1R2/T1R3 taste receptor (3 μM test compound) is listed as “B (an enhancement ratio from 10 to 20)”. At T1R2/T1R3 taste receptor (10 μM test compound), the “Fructose Enhancement EC50 Ratio” value was “A (an enhancement ratio of greater than 1 and less than 10)”; the “Sucralose Enhancement EC50 Ratio” value is “A (an enhancement ratio of greater than 1 and less than 10)”. In data set [1], the “Equivalent Sucrose Conc.” value is recorded as “B (an equivalent sucrose concentration of 10% or greater)”.

`Cc1nc2cccc(O[C@H]3CC[C@H](NC(=O)COC4CCCCC4)CC3)c2c(N)c1C(=O)O` [Compound 311]: the “Sucrose Enhancement EC50 Ratio” value on T1R2/T1R3 taste receptor (1 μM test compound) was “B (an enhancement ratio from 10 to 20)”; on T1R2/T1R3 taste receptor (3 μM test compound), “A (an enhancement ratio of greater than 1 and less than 10)”. Also, at T1R2/T1R3 taste receptor (3 μM test compound), the “Sucralose Enhancement EC50 Ratio” value is “A (an enhancement ratio of greater than 1 and less than 10)”. In addition, in data set [1], the “Equivalent Sucrose Conc.” value was “A (an equivalent sucrose concentration greater than 6% and less than 10%)”.

`Cc1nc2cccc(O[C@H]3CC[C@H](Nc4ncccn4)CC3)c2c(N)c1C(=O)O` [Compound 700, 4-Amino-2-methyl-5-((trans-4-(pyrimidin-2-ylamino)cyclohexyl)oxy) quinolone-3-carboxylic acid]: the “Sucrose Enhancement EC50 Ratio” value at T1R2/T1R3 taste receptor (1 μM test compound) is “A (an enhancement ratio of greater than 1 and less than 10)”; at T1R2/T1R3 taste receptor (3 μM test compound) it was “C (an enhancement ratio greater than 20)”; at T1R2/T1R3 taste receptor (10 μM test compound), “C (an enhancement ratio greater than 20)”. Also, the “Sucralose Enhancement EC50 Ratio” value on T1R2/T1R3 taste receptor (3 μM test compound) and on T1R2/T1R3 taste receptor (10 μM test compound) was “C (an enhancement ratio greater than 20)” throughout. For the same compound, the “Equivalent Sucrose Conc.” value in data set [1] is listed as “B (an equivalent sucrose concentration of 10% or greater)”.
